Here are results for two compounds from PMC11851464, “Development of a Spectrophotometric Assay for the Cysteine Desulfurase from Staphylococcus aureus” (Antibiotics, 2025).

Assay [1] has as its target T1, cysteine desulfurase SufS (SaSufS) (Staphylococcus aureus, UniProt A0A0H2XHJ5). The assay is described as follows: spectrophotometric […] nm assay after […] h incubation; Ala-NDA assay (IC50 […]); UV-Vis of PLP adduct. In kind it is biochemical.
Assay [2] has as its target T1, cysteine desulfurase SufS (SaSufS). The assay is described as follows: spectrophotometric […] nm assay after […] h incubation; UV-Vis of PLP adduct. Format: biochemical.

T1 sequence (A0A0H2XHJ5 1-413): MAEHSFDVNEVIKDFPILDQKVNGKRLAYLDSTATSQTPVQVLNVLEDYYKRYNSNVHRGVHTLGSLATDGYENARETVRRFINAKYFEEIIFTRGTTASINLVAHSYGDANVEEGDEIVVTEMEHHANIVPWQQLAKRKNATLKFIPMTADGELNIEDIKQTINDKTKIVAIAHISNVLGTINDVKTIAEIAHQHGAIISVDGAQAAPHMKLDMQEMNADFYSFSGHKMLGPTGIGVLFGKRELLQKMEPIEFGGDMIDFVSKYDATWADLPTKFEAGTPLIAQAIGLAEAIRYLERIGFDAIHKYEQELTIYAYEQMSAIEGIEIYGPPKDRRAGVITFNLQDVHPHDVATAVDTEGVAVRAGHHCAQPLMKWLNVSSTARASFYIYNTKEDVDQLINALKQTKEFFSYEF

With `N[C@H]1CONC1=O` [LCS, L-cycloserine], half-maximal inhibition in assay [1] (IC50) was put at 62 ± 23 µM.
`N[C@@H]1CON=C1O` [DCS, D-cycloserine]: in assay [2], the IC50 (as a rule, the concentration needed to halve the response being measured) was found to be 2170 ± 920 µM.
